According to patent US20260053764A1, “COMPOSITION FOR PREVENTING DETERIORATION IN COGNITIVE FUNCTION AND/OR IMPROVING COGNITIVE FUNCTION” (PHARMA FOODS INTERNATIONAL CO., LTD., priority 2020, published 2026):

Test system: cognitive function of a human
Experiment: RBANS neuropsychological test in clinical tests A and B
Format: in vivo
Set-up: Attention / Delayed memory / Immediate memory / Language: scale not given here
Conditions: for Attention / Immediate memory / Language / Visual spatial configuration / Delayed memory: mean ± SD; for scores regarding delayed playback, GABA group compared to the placebo group / scores regarding visual space, GABA group compared to the placebo group: after twelve weeks of ingestion
Procedure: In addition, the RBANS neuropsychological test (RBANS: Repeatable Battery for the Assessment of Neuropsychological Status) is one of the neuropsychological examinations that have been standardized the a in United States, which is neuropsychological test exercise (examination battery) that takes a short time (about 30 minutes) and can be repeatedly assessed. The RBANS neuropsychological test can assess five cognitive domains, which are immediate memory, visual spatial/constructional, language, attention and delayed memory.
Two types of placebo-controlled randomized double-blind two-group parallel comparison tests were carried out as clinical tests. […] Specifically, capsules comprising 100 mg of dextrin per capsule were used as the placebo food.
The screening examination was carried out to select 60 subjects for each test (a total of 120 subjects). MMSE (Mini Mental State Examination) is an examination for assessing the degree of progression of dementia or the like based on the score thereof with 30 as the perfect score, wherein dementia is suspected with a score of 23 or lower.
The total of 120 subjects were randomly divided into test A active group, test A placebo group, test B active group and test B placebo group with 30 subjects in each group. Each subject of the test A active group ingested two capsules of the active food, each subject of the test A placebo group ingested two capsules of the placebo food, each subject of the test B active group ingested one capsule of the active food and each subject of the test B placebo group ingested one capsule of the placebo food.
Each subject followed the schedule shown in the table below and ingested one or two of the assigned capsules together with water for 12 weeks from two weeks after the initial screening examination. All subjects had no particular instruction during the ingestion period and freely took their meals.
As shown with ● in the test schedule in Table 1, Cognitrax was carried out a total of five times, which are upon screening, before starting test food sample ingestion, after four weeks of ingestion, after eight weeks of ingestion and after twelve weeks of ingestion, and the RBANS neuropsychological test was carried out a total of two times, which are before staring test food ingestion and after twelve weeks of ingestion.

[1] = test A 200 mg, before ingestion
[2] = test B 100 mg, before ingestion

`NCCCC(=O)O` [GABA, γ-aminobutyric acid] was tested, and the “Delayed memory: difference between active food and placebo food groups” value (test A 200 mg, 12 w) was 9.4, the “Immediate memory: difference between active food and placebo food groups” value (test A 200 mg, 12 w) was 13.1 and the “Language: difference between active food and placebo food groups” value (test A 200 mg, 12 w) was 5.0. The “RBANS domain (row head blank): difference between active food and placebo food groups” value (test A 200 mg, 12 w) was 5.6, the “Visual space: difference between active food and placebo food groups” value (test A 200 mg, 12 w) was 3.1 and the Attention (test A 200 mg, 12 w) was 53.0 ± 15.2. For the same compound, the Immediate memory (test A 200 mg, 12 w) was 47.6 ± 14.7, the Language (test A 200 mg, 12 w) was 54.2 ± 9.5 and the Visual spatial configuration (test A 200 mg, 12 w) was 48.8 ± 13.0. The “Delayed memory: difference between active food and placebo food groups” value [1] was −1.6, the “Immediate memory: difference between active food and placebo food groups” value [1] was 0.8 and the “Language: difference between active food and placebo food groups” value [1] was 2.3. For the same compound, the “RBANS domain (row head blank): difference between active food and placebo food groups” value [1] was −0.8, the “Visual space: difference between active food and placebo food groups” value [1] was −0.2 and the Attention [1] was 44.5 ± 17.6. For the same compound, the Delayed memory [1] was 39.8 ± 17.1, the Immediate memory [1] was 42.3 ± 16.6 and the Language [1] was 48.4 ± 8.5. The Visual spatial configuration [1] was 47.7 ± 14.7, the “scores regarding delayed playback, GABA group compared to the placebo group” value (test A) was “significant improvement” and the “scores regarding visual space, GABA group compared to the placebo group” value (test A) was “significant improvement”. For the same compound, the “Attention: difference between active food and placebo food groups” value (test B 100 mg, 12 w) was −2.2, the “Delayed memory: difference between active food and placebo food groups” value (test B 100 mg, 12 w) was 11.9 and the “Immediate memory: difference between active food and placebo food groups” value (test B 100 mg, 12 w) was 3.5. For the same compound, the “Language: difference between active food and placebo food groups” value (test B 100 mg, 12 w) was 3.9, the “Visual space: difference between active food and placebo food groups” value (test B 100 mg, 12 w) was 9.9 and the Delayed memory (test B 100 mg, 12 w) was 46.9 ± 11.3. It also gave an Immediate memory (test B 100 mg, 12 w) of 43.9 ± 14.4, a Language (test B 100 mg, 12 w) of 51.6 ± 8.7 and a Visual spatial configuration (test B 100 mg, 12 w) of 48.2 ± 10.3. For the same compound, the “Attention: difference between active food and placebo food groups” value [2] was −5.5, the “Delayed memory: difference between active food and placebo food groups” value [2] was 1.2 and the “Immediate memory: difference between active food and placebo food groups” value [2] was −0.9. For the same compound, the “Language: difference between active food and placebo food groups” value [2] was −2.1, the “Visual space: difference between active food and placebo food groups” value [2] was 1.0 and the Attention [2] was 43.4 ± 11.6. The Delayed memory [2] was 41.7 ± 15.3, the Immediate memory [2] was 42.8 ± 13.4 and the Language [2] was 47.8 ± 11.6. The Visual spatial configuration [2] was 48.3 ± 8.8, the “scores regarding delayed playback, GABA group compared to the placebo group” value (test B) was “significant improvement” and the “scores regarding visual space, GABA group compared to the placebo group” value (test B) was “significant improvement”.
